Results from patent US20260356819A1, “OXOISOINDOLINYL-SUBSTITUTED […] DERIVATIVE AND USE THEREOF” (GLUETACS THERAPEUTICS (SHANGHAI) CO., LTD., priority 2023, published 2026).

Assays:
Type in all cases: cell-based
Conditions in all cases: compounds at 50 nM and 500 nM
IKZF2 = biological target: T1, IKZF2 (Homo sapiens, UniProt Q96SW2+Q9UKS7); experiment: Western blot degradation of IKZF2 in hPBMCs (24 h)
T1 construct: The supernatant was aspirated as the extracted total cell protein; endogenous in cells; host or cells: human peripheral blood mononuclear cells (hPBMCs)
Method in brief: (§1)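 PBMC Western blot, 24 h treatment; test levels 50 nM and 500 nM. Band density ÷ internal control, normalised → % remaining; degradation (%) = 1 − remaining.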

WEE1 = biological target: T2, WEE1 (Homo sapiens, UniProt P30291+Q96SW2); experiment: Western blot degradation of WEE1 in hPBMCs (24 h)
T2 construct: The supernatant was aspirated as the extracted total cell protein; endogenous in cells; host or cells: human peripheral blood mononuclear cells (hPBMCs)
T2 sequence (P30291 whole entry): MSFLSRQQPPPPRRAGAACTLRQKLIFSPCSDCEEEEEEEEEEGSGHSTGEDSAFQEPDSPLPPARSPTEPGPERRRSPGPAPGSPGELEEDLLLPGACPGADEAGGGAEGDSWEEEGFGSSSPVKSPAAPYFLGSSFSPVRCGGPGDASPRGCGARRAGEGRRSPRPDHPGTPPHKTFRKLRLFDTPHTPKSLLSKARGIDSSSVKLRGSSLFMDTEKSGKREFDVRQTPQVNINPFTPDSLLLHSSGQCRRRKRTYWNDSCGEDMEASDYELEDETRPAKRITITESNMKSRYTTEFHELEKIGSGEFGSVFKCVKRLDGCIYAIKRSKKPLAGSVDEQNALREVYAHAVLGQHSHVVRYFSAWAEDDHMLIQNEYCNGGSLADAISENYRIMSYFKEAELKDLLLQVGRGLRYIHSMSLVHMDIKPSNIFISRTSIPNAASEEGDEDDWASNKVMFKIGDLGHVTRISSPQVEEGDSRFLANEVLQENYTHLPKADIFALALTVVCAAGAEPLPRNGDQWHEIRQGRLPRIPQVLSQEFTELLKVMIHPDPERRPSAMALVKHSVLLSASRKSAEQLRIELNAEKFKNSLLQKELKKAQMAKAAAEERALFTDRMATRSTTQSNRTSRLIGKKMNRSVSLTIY
T2 sequence (Q96SW2 whole entry): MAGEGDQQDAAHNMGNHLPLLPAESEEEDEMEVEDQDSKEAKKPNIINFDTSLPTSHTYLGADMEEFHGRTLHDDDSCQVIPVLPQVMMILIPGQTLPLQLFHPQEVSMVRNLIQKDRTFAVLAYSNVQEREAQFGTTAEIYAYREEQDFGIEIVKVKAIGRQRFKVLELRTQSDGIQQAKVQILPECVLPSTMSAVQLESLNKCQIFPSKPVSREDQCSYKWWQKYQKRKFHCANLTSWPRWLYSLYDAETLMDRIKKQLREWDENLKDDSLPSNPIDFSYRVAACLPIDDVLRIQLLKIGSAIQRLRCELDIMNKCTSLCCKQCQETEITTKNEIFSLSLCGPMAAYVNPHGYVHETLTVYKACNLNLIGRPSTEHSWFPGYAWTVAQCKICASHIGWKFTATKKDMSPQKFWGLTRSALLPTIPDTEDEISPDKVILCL
T2 sequence (Q16531 whole entry partner): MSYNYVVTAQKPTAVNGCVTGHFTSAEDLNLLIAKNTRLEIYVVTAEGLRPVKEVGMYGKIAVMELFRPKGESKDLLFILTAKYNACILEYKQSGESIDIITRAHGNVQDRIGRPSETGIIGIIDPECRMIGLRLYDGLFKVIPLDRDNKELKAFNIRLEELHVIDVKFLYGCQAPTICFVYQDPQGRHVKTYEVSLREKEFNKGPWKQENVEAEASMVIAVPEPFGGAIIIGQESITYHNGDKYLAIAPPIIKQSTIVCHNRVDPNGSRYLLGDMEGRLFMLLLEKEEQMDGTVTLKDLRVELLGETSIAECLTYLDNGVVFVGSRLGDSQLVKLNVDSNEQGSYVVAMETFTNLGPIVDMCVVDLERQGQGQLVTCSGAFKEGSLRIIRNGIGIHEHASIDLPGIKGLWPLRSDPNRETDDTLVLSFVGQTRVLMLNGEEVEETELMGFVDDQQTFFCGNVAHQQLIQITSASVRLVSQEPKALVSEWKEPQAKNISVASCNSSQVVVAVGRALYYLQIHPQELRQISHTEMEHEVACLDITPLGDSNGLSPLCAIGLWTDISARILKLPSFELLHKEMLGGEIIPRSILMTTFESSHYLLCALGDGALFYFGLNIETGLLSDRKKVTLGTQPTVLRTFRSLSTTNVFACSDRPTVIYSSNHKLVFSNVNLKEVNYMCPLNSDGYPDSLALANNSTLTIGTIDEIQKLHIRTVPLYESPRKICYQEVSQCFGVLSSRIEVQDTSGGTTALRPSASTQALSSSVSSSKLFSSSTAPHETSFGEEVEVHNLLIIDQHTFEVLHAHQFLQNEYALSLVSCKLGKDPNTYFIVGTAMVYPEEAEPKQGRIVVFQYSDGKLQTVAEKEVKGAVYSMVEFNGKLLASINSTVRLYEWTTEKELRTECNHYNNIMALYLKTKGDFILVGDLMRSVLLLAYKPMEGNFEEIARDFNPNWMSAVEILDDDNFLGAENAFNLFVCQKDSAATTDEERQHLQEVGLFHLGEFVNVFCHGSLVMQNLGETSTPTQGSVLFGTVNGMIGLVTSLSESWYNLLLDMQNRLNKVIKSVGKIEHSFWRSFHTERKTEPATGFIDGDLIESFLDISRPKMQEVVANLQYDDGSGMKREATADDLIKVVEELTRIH
Method in brief: as §1

IKZF1 = biological target: T3, IKZF1 (Homo sapiens, UniProt Q13422+Q96SW2); experiment: Western blot degradation of IKZF1 in hPBMCs (24 h)
T3 construct: The supernatant was aspirated as the extracted total cell protein; endogenous in cells; host or cells: human peripheral blood mononuclear cells (hPBMCs)
T3 sequence (Q13422 whole entry): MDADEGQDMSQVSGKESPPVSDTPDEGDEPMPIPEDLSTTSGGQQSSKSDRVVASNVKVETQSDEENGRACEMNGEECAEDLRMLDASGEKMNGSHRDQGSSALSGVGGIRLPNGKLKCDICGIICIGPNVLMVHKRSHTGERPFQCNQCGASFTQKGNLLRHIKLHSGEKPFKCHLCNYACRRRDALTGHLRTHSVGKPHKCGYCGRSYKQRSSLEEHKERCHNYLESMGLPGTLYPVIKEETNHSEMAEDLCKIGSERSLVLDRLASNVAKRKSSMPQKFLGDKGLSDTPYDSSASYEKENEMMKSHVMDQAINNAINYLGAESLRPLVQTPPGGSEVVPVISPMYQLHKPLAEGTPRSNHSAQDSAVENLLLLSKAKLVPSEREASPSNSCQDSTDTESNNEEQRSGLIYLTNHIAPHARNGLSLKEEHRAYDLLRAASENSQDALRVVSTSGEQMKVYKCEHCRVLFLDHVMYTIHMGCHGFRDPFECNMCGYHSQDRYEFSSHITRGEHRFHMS
T3 sequence (Q96SW2 whole entry): as the sequence (Q96SW2 whole entry) above
T3 sequence (Q16531 whole entry partner): as the sequence (Q16531 whole entry partner) above
Method in brief: as §1

IKZF3 = biological target: T4, IKZF3 (Homo sapiens, UniProt Q96SW2+Q9UKT9); experiment: Western blot degradation of IKZF3 in hPBMCs (24 h)
T4 construct: The supernatant was aspirated as the extracted total cell protein; endogenous in cells; host or cells: human peripheral blood mononuclear cells (hPBMCs)
T4 sequence (Q9UKT9 whole entry): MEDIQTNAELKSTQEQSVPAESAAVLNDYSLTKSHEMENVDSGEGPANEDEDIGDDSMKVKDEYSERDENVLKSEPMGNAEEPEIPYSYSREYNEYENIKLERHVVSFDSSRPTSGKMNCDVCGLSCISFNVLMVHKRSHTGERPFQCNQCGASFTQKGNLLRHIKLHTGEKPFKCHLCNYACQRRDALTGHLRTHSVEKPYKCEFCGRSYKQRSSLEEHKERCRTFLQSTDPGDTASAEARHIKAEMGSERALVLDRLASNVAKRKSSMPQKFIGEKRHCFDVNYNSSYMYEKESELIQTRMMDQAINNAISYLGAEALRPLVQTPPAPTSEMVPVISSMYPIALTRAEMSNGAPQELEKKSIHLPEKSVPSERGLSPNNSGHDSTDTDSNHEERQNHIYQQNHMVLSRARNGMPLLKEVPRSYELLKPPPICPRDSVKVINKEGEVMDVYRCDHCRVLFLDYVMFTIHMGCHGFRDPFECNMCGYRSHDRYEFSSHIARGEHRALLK
T4 sequence (Q96SW2 whole entry): as the sequence (Q96SW2 whole entry) above
T4 sequence (Q16531 whole entry partner): as the sequence (Q16531 whole entry partner) above
Method in brief: as §1

GSPT1 = biological target: T5, GSPT1 (Homo sapiens, UniProt P15170+Q96SW2); experiment: Western blot degradation of GSPT1 in hPBMCs (24 h)
T5 construct: The supernatant was aspirated as the extracted total cell protein; endogenous in cells; host or cells: human peripheral blood mononuclear cells (hPBMCs)
T5 sequence (P15170 whole entry): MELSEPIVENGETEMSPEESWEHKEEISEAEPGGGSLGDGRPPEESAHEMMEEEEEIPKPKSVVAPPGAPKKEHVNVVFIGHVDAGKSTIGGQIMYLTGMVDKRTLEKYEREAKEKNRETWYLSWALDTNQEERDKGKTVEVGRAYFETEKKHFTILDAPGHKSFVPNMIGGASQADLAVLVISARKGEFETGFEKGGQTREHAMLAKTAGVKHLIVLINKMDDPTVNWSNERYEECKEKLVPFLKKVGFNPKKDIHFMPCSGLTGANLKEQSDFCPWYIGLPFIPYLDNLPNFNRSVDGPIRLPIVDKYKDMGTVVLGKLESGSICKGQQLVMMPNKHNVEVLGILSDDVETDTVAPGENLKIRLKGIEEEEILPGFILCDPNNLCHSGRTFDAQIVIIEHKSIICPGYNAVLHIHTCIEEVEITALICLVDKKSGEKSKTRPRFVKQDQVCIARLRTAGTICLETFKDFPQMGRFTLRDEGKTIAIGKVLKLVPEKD
T5 sequence (Q96SW2 whole entry): as the sequence (Q96SW2 whole entry) above
T5 sequence (Q16531 whole entry partner): as the sequence (Q16531 whole entry partner) above
Method in brief: as §1

CK1α = biological target: T6, CK1α (Homo sapiens, UniProt P48729+Q96SW2); experiment: Western blot degradation of CK1α in hPBMCs (24 h)
T6 construct: The supernatant was aspirated as the extracted total cell protein; endogenous in cells; host or cells: human peripheral blood mononuclear cells (hPBMCs)
T6 sequence (P48729 whole entry): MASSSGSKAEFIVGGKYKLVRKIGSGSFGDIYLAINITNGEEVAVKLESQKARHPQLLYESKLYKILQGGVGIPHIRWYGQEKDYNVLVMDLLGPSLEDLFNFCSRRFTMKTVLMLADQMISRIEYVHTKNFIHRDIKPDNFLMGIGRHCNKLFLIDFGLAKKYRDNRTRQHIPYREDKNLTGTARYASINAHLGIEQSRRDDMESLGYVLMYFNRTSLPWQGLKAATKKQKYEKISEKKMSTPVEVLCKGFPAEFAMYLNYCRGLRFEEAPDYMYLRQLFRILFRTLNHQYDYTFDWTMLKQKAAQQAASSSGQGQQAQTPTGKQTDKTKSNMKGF
T6 sequence (Q96SW2 whole entry): as the sequence (Q96SW2 whole entry) above
T6 sequence (Q16531 whole entry partner): as the sequence (Q16531 whole entry partner) above
Method in brief: as §1

Compound	IKZF2 substrate protein remaining % (IKZF2)	WEE1 substrate protein remaining % (WEE1)	IKZF1 substrate protein remaining % (IKZF1)	IKZF3 substrate protein remaining % (IKZF3)	GSPT1 substrate protein remaining % (GSPT1)	CK1α substrate protein remaining % (CK1α)
CC(C)c1cc2c(N3CCN(Cc4ccc5c(c4)C(=O)N(N4CCC(=O)NC4=O)C5=O)CC3)ncnc2s1 [GT-08093, 2-(2,4-dioxotetrahydropyrimidin-1(2H)-yl)-5-((4-(6-isopropylthieno[2,3-d]pyrimidin-4-yl)piperazin-1-yl)methyl)isoindoline-1,3-dione]	B (80%< substrate protein remaining % ≤100%)	A (0% ≤ substrate protein remaining % ≤80%)	B (80%< substrate protein remaining % ≤100%)	B (80%< substrate protein remaining % ≤100%)	A (0% ≤ substrate protein remaining % ≤80%)	A (0% ≤ substrate protein remaining % ≤80%)
Cc1sc2ncnc(N3CCN(Cc4ccc5c(c4)C(=O)N(N4CCC(=O)NC4=O)C5=O)CC3)c2c1C [GT-08094, 5-((4-(5,6-dimethylthieno[2,3-d]pyrimidin-4-yl)piperazin-1-yl)methyl)-2-(2,4-dioxotetrahydropyrimidin-1(2H)-yl)isoindoline-1,3-dione]	B (80%< substrate protein remaining % ≤100%)	A (0% ≤ substrate protein remaining % ≤80%)	B (80%< substrate protein remaining % ≤100%)	B (80%< substrate protein remaining % ≤100%)	A (0% ≤ substrate protein remaining % ≤80%)	A (0% ≤ substrate protein remaining % ≤80%)
Cc1sc2ncnc(N3CCCN(Cc4ccc5c(c4)C(=O)N(N4CCC(=O)NC4=O)C5=O)CC3)c2c1C [GT-08095, 5-((4-(5,6-dimethylthieno[2,3-d]pyrimidin-4-yl)-1,4-diazepan-1-yl)methyl)-2-(2,4-dioxotetrahydropyrimidin-1(2H)-yl)isoindoline-1,3-dione]	B (80%< substrate protein remaining % ≤100%)	A (0% ≤ substrate protein remaining % ≤80%)	B (80%< substrate protein remaining % ≤100%)	B (80%< substrate protein remaining % ≤100%)	B (80%< substrate protein remaining % ≤100%)	A (0% ≤ substrate protein remaining % ≤80%)
O=C1CCN(N2C(=O)c3ccc(CN4CCN(c5ncnc6sc(Br)cc56)CC4)cc3C2=O)C(=O)N1 [GT-08096, 5-((4-(6-bromothieno[2,3-d]pyrimidin-4-yl)piperazin-1-yl)methyl)-2-(2,4-dioxotetrahydropyrimidin-1(2H)-yl)isoindoline-1,3-dione]	B (80%< substrate protein remaining % ≤100%)	A (0% ≤ substrate protein remaining % ≤80%)	B (80%< substrate protein remaining % ≤100%)	B (80%< substrate protein remaining % ≤100%)	A (0% ≤ substrate protein remaining % ≤80%)	A (0% ≤ substrate protein remaining % ≤80%)
O=C1CCN(N2C(=O)c3ccc(CN4CCN(c5ncnc6sc(-c7ccccc7)cc56)CC4)cc3C2=O)C(=O)N1 [GT-08097, 2-(2,4-dioxotetrahydropyrimidin-1(2H)-yl)-5-((4-(6-phenylthieno[2,3-d]pyrimidin-4-yl)piperazin-1-yl)methyl)isoindoline-1,3-dione]	B (80%< substrate protein remaining % ≤100%)	A (0% ≤ substrate protein remaining % ≤80%)	B (80%< substrate protein remaining % ≤100%)	B (80%< substrate protein remaining % ≤100%)	A (0% ≤ substrate protein remaining % ≤80%)	A (0% ≤ substrate protein remaining % ≤80%)
O=C1CCN(N2C(=O)c3ccc(CN4CCN(c5ncnc6scc(-c7ccccc7)c56)CC4)cc3C2=O)C(=O)N1 [GT-08098, 2-(2,4-dioxotetrahydropyrimidin-1(2H)-yl)-5-((4-(5-phenylthieno[2,3-d]pyrimidin-4-yl)piperazin-1-yl)methyl)isoindoline-1,3-dione]	B (80%< substrate protein remaining % ≤100%)	B (80%< substrate protein remaining % ≤100%)	B (80%< substrate protein remaining % ≤100%)	B (80%< substrate protein remaining % ≤100%)	A (0% ≤ substrate protein remaining % ≤80%)	B (80%< substrate protein remaining % ≤100%)
Cc1nc(N2CCN(Cc3ccc4c(c3)C(=O)N(N3CCC(=O)NC3=O)C4=O)CC2)c2c(-c3ccccc3)csc2n1 [GT-08099, 2-(2,4-dioxotetrahydropyrimidin-1(2H)-yl)-5-((4-(2-methyl-5-phenylthieno[2,3-d]pyrimidin-4-yl)piperazin-1-yl)methyl)isoindoline-1,3-dione]	B (80%< substrate protein remaining % ≤100%)	B (80%< substrate protein remaining % ≤100%)	B (80%< substrate protein remaining % ≤100%)	B (80%< substrate protein remaining % ≤100%)	A (0% ≤ substrate protein remaining % ≤80%)	B (80%< substrate protein remaining % ≤100%)
O=C1CCN(N2C(=O)c3ccc(CN4CCN(c5ncnc6sc7c(c56)CCC7)CC4)cc3C2=O)C(=O)N1 [GT-08103, 5-((4-(6,7-dihydro-5H-cyclopenta[4,5]thieno[2,3-d]pyrimidin-4-yl)piperazin-1-yl)methyl)-2-(2,4-dioxotetrahydropyrimidin-1(2H)-yl)isoindoline-1,3-dione]	A (0% ≤ substrate protein remaining % ≤80%)	B (80%< substrate protein remaining % ≤100%)	B (80%< substrate protein remaining % ≤100%)	A (0% ≤ substrate protein remaining % ≤80%)	B (80%< substrate protein remaining % ≤100%)	B (80%< substrate protein remaining % ≤100%)
Cc1nc(N2CCN(Cc3ccc4c(c3)C(=O)N(N3CCC(=O)NC3=O)C4=O)CC2)c2c3c(sc2n1)CCC3 [GT-08104, 2-(2,4-dioxotetrahydropyrimidin-1(2H)-yl)-5-((4-(2-methyl-6,7-dihydro-5H-cyclopenta[4,5]thieno[2,3-d]pyrimidin-4-yl)piperazin-1-yl)methyl)isoindoline-1,3-dione]	A (0% ≤ substrate protein remaining % ≤80%)	A (0% ≤ substrate protein remaining % ≤80%)	B (80%< substrate protein remaining % ≤100%)	A (0% ≤ substrate protein remaining % ≤80%)	A (0% ≤ substrate protein remaining % ≤80%)	B (80%< substrate protein remaining % ≤100%)
O=C1CCN(N2C(=O)c3ccc(CN4CCN(c5ncc6ccsc6n5)CC4)cc3C2=O)C(=O)N1 [GT-08105, 2-(2,4-dioxotetrahydropyrimidin-1(2H)-yl)-5-((4-(thieno[2,3-d]pyrimidin-2-yl)piperazin-1-yl)methyl)isoindoline-1,3-dione]	A (0% ≤ substrate protein remaining % ≤80%)	B (80%< substrate protein remaining % ≤100%)	B (80%< substrate protein remaining % ≤100%)	A (0% ≤ substrate protein remaining % ≤80%)	A (0% ≤ substrate protein remaining % ≤80%)	B (80%< substrate protein remaining % ≤100%)
O=C1CCN(N2C(=O)c3ccc(CN4CCC(c5ncnc6sccc56)CC4)cc3C2=O)C(=O)N1 [GT-08106, 2-(2,4-dioxotetrahydropyrimidin-1(2H)-yl)-5-((4-(thieno[2,3-d]pyrimidin-4-yl)piperidin-1-yl)methyl)isoindoline-1,3-dione]	B (80%< substrate protein remaining % ≤100%)	A (0% ≤ substrate protein remaining % ≤80%)	B (80%< substrate protein remaining % ≤100%)	B (80%< substrate protein remaining % ≤100%)	A (0% ≤ substrate protein remaining % ≤80%)	B (80%< substrate protein remaining % ≤100%)
Cc1cc2c(C3CCN(Cc4ccc5c(c4)C(=O)N(N4CCC(=O)NC4=O)C5=O)CC3)ncnc2s1 [GT-08107, 2-(2,4-dioxotetrahydropyrimidin-1(2H)-yl)-5-((4-(6-methylthieno[2,3-d]pyrimidin-4-yl)piperidin-1-yl)methyl)isoindoline-1,3-dione]	A (0% ≤ substrate protein remaining % ≤80%)	A (0% ≤ substrate protein remaining % ≤80%)	A (0% ≤ substrate protein remaining % ≤80%)	A (0% ≤ substrate protein remaining % ≤80%)	A (0% ≤ substrate protein remaining % ≤80%)	A (0% ≤ substrate protein remaining % ≤80%)
